Starred links: 1 amine or outer side, 2 acyl side, 3 side chain; linkers in the order of their positions; H or OH if unused. Positions of bridges follow the written chain, without caps; N, C: chain ends. Non-standard residues stand in square brackets, D forms with d. Residues, ends and D or L forms follow the SMILES beside them. *: point of attachment. hPhe(3-Cl-4-CF3) = N[C@@H](CCc1ccc(C(F)(F)F)c(Cl)c1)C(=O)O; NMePhe(3-CF3) = CN[C@@H](Cc1cccc(C(F)(F)F)c1)C(=O)O; NMePhe(2-CF3) = CN[C@@H](Cc1ccccc1C(F)(F)F)C(=O)O; NMePhe(3-Me) = CN[C@@H](Cc1cccc(C)c1)C(=O)O; NMePhe(3-F) = CN[C@@H](Cc1cccc(F)c1)C(=O)O; NMePhe(4-F) = CN[C@@H](Cc1ccc(F)cc1)C(=O)O; NMedβ3hAla = C[C@H](CC(=O)[*:2])N(C)[*:1]; NMeY = CN[C@@H](Cc1ccc(O)cc1)C(=O)O; NMeD = CN[C@@H](CC(=O)O)C(=O)O; NMeL = CN[C@@H](CC(C)C)C(=O)O; NMeV = CN[C@H](C(=O)O)C(C)C; d(β3hA) = C[C@@H](N)CC(=O)O; Piperidide = C1CCN(*)CC1; Ac5c = NC1(C(=O)O)CCCC1; CF3 = FC(F)(F)*; Sar = CNCC(=O)O
Assays:
[1] = test system: Human pancreatic cancer cell line AsPC-1; assay: Measurement of AsPC-1 cell growth inhibition (AsPC-1 CGI); format: cell-based; conditions: 96 h
Procedure, shortened: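 AsPC-1 cells in 15% FBS RPMI-1640 were exposed to test compound for 96 hours at 37° C, with CellTiter-Glo as endpoint.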

[2] = target: T1, Kras and SOS1 (biotin-tagged human Kras loaded with GDP, His-tagged human SOS1) (Homo sapiens, UniProt P01116, G12D); assay: Protein-protein interaction inhibition between Kras and SOS1 (KrasGl2D-SOS PPI) using AlphaScreen; format: binding; conditions: AlphaScreen; biotin-tagged human Kras loaded with GDP, His-tagged human SOS1; read-out: KRAS G12D-SOS PPI IC50
T1 construct: made in house; host or cells: E. coli (stated for Kras only)
T1 sequence (P01116 1-188 isoform P01116-2 G12D): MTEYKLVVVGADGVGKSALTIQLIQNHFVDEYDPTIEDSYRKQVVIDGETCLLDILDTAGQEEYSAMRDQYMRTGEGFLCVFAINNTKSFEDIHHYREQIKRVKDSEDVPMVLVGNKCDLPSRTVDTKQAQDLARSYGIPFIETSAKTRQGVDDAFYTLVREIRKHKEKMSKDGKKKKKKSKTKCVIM
Procedure, shortened: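 Kras was produced in E. coli, purified, then loaded with GDP. It was paired via streptavidin acceptor beads with His-SOS1 held on nickel donor beads, and proximity signal at 520-620 nm was read after 680 nm illumination.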

Compound | IC50 [1] [nM] | IC50 [2] [nM]
CC[C@H](C)[C@@H]1NC(=O)[C@H](CC(C)C)N(C)C(=O)C[C@@H](C)N(C)C(=O)[C@H](C(C)C)N(C)C(=O)C2(CCCC2)NC(=O)[C@@H]2CCCN2C(=O)[C@H](CCc2ccc(C(F)(F)F)c(Cl)c2)NC(=O)CN(C)C(=O)[C@H](Cc2ccc(OC)cc2)N(C)C(=O)CN(C)C(=O)CN(C)C1=O [Compound 1551] (cyclo([Ac5c][NMeV][NMedβ3hAla][NMeL]I[Sar][Sar][NMeY](Me)[Sar][hPhe(3-Cl-4-CF3)]P)) | 50 to 100 | 4.9
CC[C@H](C)[C@@H]1NC(=O)[C@H](CC(C)C)N(C)C(=O)C[C@@H](C(=O)N2CCCCC2)N(C)C(=O)[C@H](C(C)C)N(C)C(=O)C2(CCCC2)NC(=O)[C@@H]2CCCN2C(=O)[C@H](CCc2ccc(C(F)(F)F)c(Cl)c2)NC(=O)CN(C)C(=O)[C@H](Cc2cccc(C(F)(F)F)c2)N(C)C(=O)CN(C)C(=O)CN(C)C1=O [Compound 1555] ([NMeL]I[Sar][Sar][NMePhe(3-CF3)][Sar][hPhe(3-Cl-4-CF3)]P[Ac5c][NMeV][NMeD]-Piperidide; lactam N-11) | 100 to 500 | 6.1
CC[C@H](C)[C@@H]1NC(=O)[C@H](CC(C)C)N(C)C(=O)C[C@@H](C(=O)N2CCCCC2)N(C)C(=O)[C@H](C(C)C)N(C)C(=O)C2(CCCC2)NC(=O)[C@@H]2CCCN2C(=O)[C@H](CCc2ccc(C(F)(F)F)c(Cl)c2)NC(=O)CN(C)C(=O)[C@H](Cc2cccc(F)c2)N(C)C(=O)CN(C)C(=O)CN(C)C1=O [Compound 1557] ([NMeL]I[Sar][Sar][NMePhe(3-F)][Sar][hPhe(3-Cl-4-CF3)]P[Ac5c][NMeV][NMeD]-Piperidide; lactam N-11) | 100 to 500 | 5.7
CC[C@H](C)[C@@H]1NC(=O)[C@H](CC(C)C)N(C)C(=O)C[C@@H](C)N(C)C(=O)[C@H](C(C)C)N(C)C(=O)C2(CCCC2)NC(=O)[C@@H]2CCCN2C(=O)[C@H](CCc2ccc(C(F)(F)F)c(Cl)c2)NC(=O)CN(C)C(=O)[C@H](Cc2ccc(OC(F)(F)F)cc2)N(C)C(=O)CN(C)C(=O)CN(C)C1=O [Compound 1563] (cyclo([Ac5c][NMeV][NMedβ3hAla][NMeL]I[Sar][Sar][NMeY](CF3)[Sar][hPhe(3-Cl-4-CF3)]P)) | 50 to 100 | 6.2
CC[C@H](C)[C@@H]1NC(=O)[C@H](CC(C)C)N(C)C(=O)C[C@@H](C)NC(=O)[C@H](C(C)C)N(C)C(=O)C2(CCCC2)NC(=O)[C@@H]2CCCN2C(=O)[C@H](CCc2ccc(C(F)(F)F)c(Cl)c2)NC(=O)CN(C)C(=O)[C@H](Cc2ccc(OC(F)(F)F)cc2)N(C)C(=O)CN(C)C(=O)CN(C)C1=O [Compound 1565] (cyclo([Ac5c][NMeV][d(β3hA)][NMeL]I[Sar][Sar][NMeY](CF3)[Sar][hPhe(3-Cl-4-CF3)]P)) | 100 to 500 | 14
CC[C@H](C)[C@@H]1NC(=O)[C@H](CC(C)C)N(C)C(=O)C[C@@H](C)N(C)C(=O)[C@H](C(C)C)N(C)C(=O)C2(CCCC2)NC(=O)[C@@H]2CCCN2C(=O)[C@H](CCc2ccc(C(F)(F)F)c(Cl)c2)NC(=O)CN(C)C(=O)[C@H](Cc2ccccc2C(F)(F)F)N(C)C(=O)CN(C)C(=O)CN(C)C1=O [Compound 1567] (cyclo([Ac5c][NMeV][NMedβ3hAla][NMeL]I[Sar][Sar][NMePhe(2-CF3)][Sar][hPhe(3-Cl-4-CF3)]P)) | 100 to 500 | 33
CC[C@H](C)[C@@H]1NC(=O)[C@H](CC(C)C)N(C)C(=O)C[C@@H](C)N(C)C(=O)[C@H](C(C)C)N(C)C(=O)C2(CCCC2)NC(=O)[C@@H]2CCCN2C(=O)[C@H](CCc2ccc(C(F)(F)F)c(Cl)c2)NC(=O)CN(C)C(=O)[C@H](Cc2cccc(C)c2)N(C)C(=O)CN(C)C(=O)CN(C)C1=O [Compound 1570] (cyclo([Ac5c][NMeV][NMedβ3hAla][NMeL]I[Sar][Sar][NMePhe(3-Me)][Sar][hPhe(3-Cl-4-CF3)]P)) | 50 to 100 | 4.3
CC[C@H](C)[C@@H]1NC(=O)[C@H](CC(C)C)N(C)C(=O)C[C@@H](C)N(C)C(=O)[C@H](C(C)C)N(C)C(=O)C2(CCCC2)NC(=O)[C@@H]2CCCN2C(=O)[C@H](CCc2ccc(C(F)(F)F)c(Cl)c2)NC(=O)CN(C)C(=O)[C@H](Cc2ccc(F)cc2)N(C)C(=O)CN(C)C(=O)CN(C)C1=O [Compound 1571] (cyclo([Ac5c][NMeV][NMedβ3hAla][NMeL]I[Sar][Sar][NMePhe(4-F)][Sar][hPhe(3-Cl-4-CF3)]P)) | 50 to 100 | 4.8
CC[C@H](C)[C@@H]1NC(=O)[C@H](CC(C)C)N(C)C(=O)C[C@@H](C)N(C)C(=O)[C@H](C(C)C)N(C)C(=O)C2(CCCC2)NC(=O)[C@@H]2CCCN2C(=O)[C@H](CCc2ccc(C(F)(F)F)c(Cl)c2)NC(=O)CN(C)C(=O)[C@H](Cc2cccc(C(F)(F)F)c2)N(C)C(=O)CN(C)C(=O)CN(C)C1=O [Compound 1572] (cyclo([Ac5c][NMeV][NMedβ3hAla][NMeL]I[Sar][Sar][NMePhe(3-CF3)][Sar][hPhe(3-Cl-4-CF3)]P)) | 50 to 100 | 9.8

Reference: US12371454B2, “Cyclic peptide compound having Kras inhibitory action” (priority 2019, dated 2025)
